Test results taken from ChEMBL document CHEMBL1201862, “PubChem BioAssay data set” (2004).
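Results reflect a 48-hour exposure of cells in 96-well plates to compound at five concentrations. GI50 = concentration required for 50% inhibition of growth.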 Active and inactive are the calls of the source. Rule as the data show it: active = GI50 up to about 1.1 µM and inactive = higher.

Experiments:
Assay in all cases: DTP human tumour cell line panel, 48 h
[1] = system: 786-0
[2] = system: A549
[3] = system: COLO 205
[4] = system: EKVX
[5] = system: HCT-116
[6] = system: HCT-15
[7] = system: HT-29
[8] = system: MOLT-4
[9] = system: NCI-H226
[10] = system: NCI-H23
[11] = system: NCI-H522
[12] = system: OVCAR-5
[13] = system: SK-OV-3
[14] = system: SNB-75
[15] = system: UACC-257
[16] = system: UO-31
[17] = system: NCI-H460

Row | SMILES | GI50 [1] | GI50 [2] | GI50 [3] | GI50 [4] | GI50 [5] | GI50 [6] [µM] | GI50 [7] | GI50 [8] | GI50 [9] | GI50 [10] | GI50 [11] | GI50 [12] | GI50 [13] | GI50 [14] | GI50 [15] | GI50 [16] | GI50 [17]
1 | O=C1C2C3SC(c4cc5ccccc5cc43)C2C(=O)N1c1ccccc1 (centres undefined) | 50.8 µM (inactive) | > 100 µM (inactive) | > 100 µM (inactive) | > 100 µM (inactive) | > 100 µM (inactive) | > 100 | > 100 µM (inactive) | > 100 µM (inactive) | > 100 µM (inactive) | 98.9 µM (inactive) | 75.7 µM (inactive) | > 100 µM (inactive) | > 100 µM (inactive) | 19.8 µM (inactive) | > 100 µM (inactive) | > 100 µM (inactive) | –
2 | CC(C)(C)C(=O)OC12/C(=N/O)CCCCCC1c1ccccc12 (centres undefined) | 17.2 µM (inactive) | 17.8 µM (inactive) | 17 µM (inactive) | – | 14.4 µM (inactive) | 16.2 | 13.3 µM (inactive) | 14.5 µM (inactive) | 17.7 µM (inactive) | 16.6 µM (inactive) | 17.8 µM (inactive) | 15.3 µM (inactive) | 18.7 µM (inactive) | 14.5 µM (inactive) | 15 µM (inactive) | 17.1 µM (inactive) | 17.3 µM (inactive)
3 | COc1ccc(C(=O)C(C(=O)C(=O)Nc2ccc(Cl)c(Cl)c2)c2ccc(OC)cc2)cc1 (centres undefined) | > 100 µM (inactive) | > 100 µM (inactive) | – | > 100 µM (inactive) | > 100 µM (inactive) | > 100 | > 100 µM (inactive) | > 100 µM (inactive) | > 100 µM (inactive) | > 100 µM (inactive) | – | > 100 µM (inactive) | – | 57.5 µM (inactive) | > 100 µM (inactive) | > 100 µM (inactive) | > 100 µM (inactive)
4 | Cc1nc(N)sc1C(=O)/C=C/c1ccc(/C=C/C(=O)c2sc(NC(=O)CCCCCCCCC(=O)Nc3nc(C)c(C(=O)/C=C/c4ccc(/C=C/C(=O)c5sc(N)nc5C)cc4)s3)nc2C)cc1 | > 100 µM (inactive) | > 100 µM (inactive) | > 100 µM (inactive) | > 100 µM (inactive) | 92 µM (inactive) | > 100 | > 100 µM (inactive) | > 100 µM (inactive) | – | > 100 µM (inactive) | 64.6 µM (inactive) | > 100 µM (inactive) | > 100 µM (inactive) | – | > 100 µM (inactive) | > 100 µM (inactive) | > 100 µM (inactive)
5 | COc1ccc(N2C(=O)/C(=C/c3ccc(N(CCC#N)CCC#N)cc3C)N=C2/C=C\c2ccccc2)cc1 | 44.4 µM (inactive) | 53 µM (inactive) | 26.7 µM (inactive) | – | 76.6 µM (inactive) | 5.69 | 38.9 µM (inactive) | 34.3 µM (inactive) | > 100 µM (inactive) | 49.5 µM (inactive) | 17 µM (inactive) | > 100 µM (inactive) | 49.7 µM (inactive) | > 100 µM (inactive) | 99.1 µM (inactive) | 14 µM (inactive) | 33.4 µM (inactive)
6 | CC(=O)OC1C(CCl)OC(N=[N+]=[N-])C(OC(C)=O)C1OC(C)=O (centres undefined) | > 100 µM (inactive) | > 100 µM (inactive) | > 100 µM (inactive) | > 100 µM (inactive) | > 100 µM (inactive) | > 100 | > 100 µM (inactive) | > 100 µM (inactive) | – | > 100 µM (inactive) | > 100 µM (inactive) | – | > 100 µM (inactive) | > 100 µM (inactive) | > 100 µM (inactive) | > 100 µM (inactive) | > 100 µM (inactive)
7 | O=C1CCN2C(=Nc3cccc4cccc2c34)N1 | 26.1 µM (inactive) | > 100 µM (inactive) | > 100 µM (inactive) | 0.551 µM (active) | > 100 µM (inactive) | > 100 | > 100 µM (inactive) | > 100 µM (inactive) | > 100 µM (inactive) | > 100 µM (inactive) | – | > 100 µM (inactive) | > 100 µM (inactive) | 76.9 µM (inactive) | > 100 µM (inactive) | 73.8 µM (inactive) | > 100 µM (inactive)
8 | CP(C)C.[Ag][I] | > 100 µM (inactive) | > 100 µM (inactive) | 47.9 µM (inactive) | > 100 µM (inactive) | 58.3 µM (inactive) | > 100 | > 100 µM (inactive) | > 100 µM (inactive) | > 100 µM (inactive) | 85.3 µM (inactive) | – | > 100 µM (inactive) | > 100 µM (inactive) | 20 µM (inactive) | > 100 µM (inactive) | > 100 µM (inactive) | > 100 µM (inactive)
9 | CCOC(=O)C1=C(O)C(=O)c2ccsc2C1=O | > 100 µM (inactive) | > 100 µM (inactive) | > 100 µM (inactive) | > 100 µM (inactive) | > 100 µM (inactive) | > 100 | > 100 µM (inactive) | > 100 µM (inactive) | > 100 µM (inactive) | > 100 µM (inactive) | 69.3 µM (inactive) | > 100 µM (inactive) | > 100 µM (inactive) | > 100 µM (inactive) | > 100 µM (inactive) | > 100 µM (inactive) | > 100 µM (inactive)
10 | Cc1ccc(C2=Nc3ccccc3SC(c3cccc4c3OCO4)C2)cc1 (centres undefined) | 19 µM (inactive) | 23.9 µM (inactive) | 18.3 µM (inactive) | 21.1 µM (inactive) | – | 21.1 | 16.9 µM (inactive) | 17.9 µM (inactive) | 18.1 µM (inactive) | 16.7 µM (inactive) | 13.9 µM (inactive) | 21.8 µM (inactive) | 35.8 µM (inactive) | 7.94 µM (inactive) | 18 µM (inactive) | 14.1 µM (inactive) | 31.3 µM (inactive)
11 | CCOC(=O)C(NO)C(Sc1ccccc1)c1ccc(OC)cc1 (centres undefined) | > 100 µM (inactive) | 38.6 µM (inactive) | 35.3 µM (inactive) | > 100 µM (inactive) | 34.9 µM (inactive) | 68.9 | > 100 µM (inactive) | 42.1 µM (inactive) | 81.8 µM (inactive) | > 100 µM (inactive) | 34.8 µM (inactive) | > 100 µM (inactive) | > 100 µM (inactive) | 55.5 µM (inactive) | 65.9 µM (inactive) | 68.5 µM (inactive) | 44.4 µM (inactive)
12 | Cc1cc(NS(=O)(=O)c2ccc(NC(=O)c3ccc(Cl)c4c(Nc5ccc(S(=O)(=O)N=C(N)N)cc5)c5ccccc5nc34)cc2)no1 | 45.6 µM (inactive) | – | – | 95.1 µM (inactive) | 36 µM (inactive) | > 100 | 45.8 µM (inactive) | 15.2 µM (inactive) | – | > 100 µM (inactive) | 20 µM (inactive) | > 100 µM (inactive) | > 100 µM (inactive) | 29.7 µM (inactive) | > 100 µM (inactive) | > 100 µM (inactive) | > 100 µM (inactive)
13 | COc1cc(N)c2[nH]c3c(C)ccc(C)c3c2c1 | > 100 µM (inactive) | > 100 µM (inactive) | > 100 µM (inactive) | > 100 µM (inactive) | > 100 µM (inactive) | > 100 | > 100 µM (inactive) | > 100 µM (inactive) | > 100 µM (inactive) | > 10 µM (inactive) | > 100 µM (inactive) | > 100 µM (inactive) | – | > 100 µM (inactive) | > 100 µM (inactive) | > 100 µM (inactive) | > 100 µM (inactive)
14 | Cc1ccc(C(O)(c2ccc(C)cc2)c2ccccn2)cc1 | > 100 µM (inactive) | 64.6 µM (inactive) | > 100 µM (inactive) | 86.7 µM (inactive) | 68.9 µM (inactive) | > 100 | 80.7 µM (inactive) | – | > 100 µM (inactive) | 80.2 µM (inactive) | – | > 100 µM (inactive) | > 100 µM (inactive) | 30.9 µM (inactive) | > 100 µM (inactive) | 38.3 µM (inactive) | > 100 µM (inactive)
15 | COC(=O)/C(=N\NC(=S)NN)C(C(=O)C(=O)Nc1ccccc1C(N)=O)c1nc2ccccc2nc1O (centres undefined) | > 100 µM (inactive) | > 100 µM (inactive) | > 100 µM (inactive) | > 100 µM (inactive) | > 100 µM (inactive) | > 100 | – | > 100 µM (inactive) | > 100 µM (inactive) | 7.69 µM (inactive) | > 100 µM (inactive) | > 100 µM (inactive) | – | – | > 100 µM (inactive) | > 100 µM (inactive) | –
16 | OCn1nc2c(C3OCCO3)cc3ccccc3n2c1=S | > 100 µM (inactive) | > 100 µM (inactive) | > 100 µM (inactive) | > 100 µM (inactive) | > 100 µM (inactive) | > 100 | > 100 µM (inactive) | > 100 µM (inactive) | > 100 µM (inactive) | > 100 µM (inactive) | > 100 µM (inactive) | > 100 µM (inactive) | > 100 µM (inactive) | > 100 µM (inactive) | > 100 µM (inactive) | > 100 µM (inactive) | > 100 µM (inactive)
17 | COc1cccc(/C=C(/C(=O)O)c2cc(OC)c(OC)c(OC)c2)c1 | > 100 µM (inactive) | > 100 µM (inactive) | > 100 µM (inactive) | > 100 µM (inactive) | > 100 µM (inactive) | > 100 | > 100 µM (inactive) | > 100 µM (inactive) | > 100 µM (inactive) | – | > 100 µM (inactive) | – | – | > 100 µM (inactive) | > 100 µM (inactive) | > 100 µM (inactive) | > 100 µM (inactive)
18 | COc1ccc2[nH]cc(CCNC(C)=O)c2c1 [MELATONIN] | 88.5 µM (inactive) | > 100 µM (inactive) | 29.9 µM (inactive) | > 100 µM (inactive) | > 100 µM (inactive) | 77.4 | 69 µM (inactive) | > 100 µM (inactive) | – | > 100 µM (inactive) | > 100 µM (inactive) | > 100 µM (inactive) | > 100 µM (inactive) | > 100 µM (inactive) | > 100 µM (inactive) | > 100 µM (inactive) | > 100 µM (inactive)
